Measurements from patent publication US11897865B2, “ABHD12 inhibitors and methods of making and using same” (THE SCRIPPS RESEARCH INSTITUTE, priority 2018, dated 2024).

What follows are compounds tested against T1, ABHD12 (Mus musculus, UniProt Q99LR1) (assay: Gel-based competitive ABPP, JJH350 probe vs brain membrane proteome). Conditions: 10 μM compound, read-out: % Inhibition @ 10 μM (ABPP gel_JJH350 probe vs brain mem).
T1 construct: from tissue; host or cells: brain membrane proteome
T1 sequence (Q99LR1 1-398): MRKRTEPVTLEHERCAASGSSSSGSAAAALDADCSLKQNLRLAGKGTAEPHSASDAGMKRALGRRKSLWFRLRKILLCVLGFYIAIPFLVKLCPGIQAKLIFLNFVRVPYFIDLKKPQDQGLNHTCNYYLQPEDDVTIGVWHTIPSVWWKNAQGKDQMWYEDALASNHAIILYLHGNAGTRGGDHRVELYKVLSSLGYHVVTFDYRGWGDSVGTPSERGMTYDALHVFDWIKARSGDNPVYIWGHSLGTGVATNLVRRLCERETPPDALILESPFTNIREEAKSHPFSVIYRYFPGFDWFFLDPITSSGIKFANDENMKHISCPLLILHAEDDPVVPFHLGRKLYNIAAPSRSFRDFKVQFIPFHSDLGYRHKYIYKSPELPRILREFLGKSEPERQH
Type: biochemical
Protocol: Gel-Based Competitive ABPP for In Vitro Inhibitor Treatment of Proteomes:
Gel-based ABPP assays were performed as previously reported (Bachovchin, D. A. et al. Superfamily-wide portrait of serine hydrolase inhibition achieved by library-versus-library screening. Proc. Natl. Acad. Sci. U. S. A. 2010, 107, 20941-20946). Cell or tissue proteomes (50 μL, 1 mg/mL) were treated with either FP-Rh (1 μM final concentration) or JJH350 (2 μM final concentration) for 45 min at 37° C. For FP-Rh labeled samples, the reactions were quenched by adding 20 μL of 4× SDS-PAGE loading buffer. The 30 μL of the quenched samples were loaded on gel for analysis. For (S)-1,3-dioxo-7-(4-phenoxybenzoyl)hexahydroimidazo[1,5-a]pyrazin-2(3H)-yl 4-(4-(prop-2-yn-1-yloxy)phenyl)piperazine-1-carboxylate (JJH350)-labeled samples, copper-catalyzed azide-alkyne cycloaddition (CuAAC) was used for visualizing the labeled proteins following the reported protocol. Briefly, rhodamine-PEG3-N3 (1 μL/reaction, 1.25 mM in DMSO), CuSO4 (1 μL/reaction, 50 mM in H2O), TBTA (3 μL/reaction, 1.7 mM in DMSO/t-BuOH [1:4, v/v]) and tris(2-carboxyethyi)phosphine (TCEP) (1 μL/reaction, 50 mM in H2O, freshly prepared) were premixed. 6 μL of this click reagent mixture was immediately added to each JJH350-labeled samples (50 μL, 1 mg/mL) and incubated for 1 h at room temperature. The reactions were quenched by adding 20 μL of 4× SDS-PAGE loading buffer. The 40 μL of the quenched samples were loaded on a gel for analysis.
After separation by SDS-PAGE (10% acrylamide), samples were visualized by in-gel fluorescence scanning using the ChemiDoc MP system (Bio-Rad). Band intensities were quantified using the Image Lab (5.2.1) software (Bio-Rad).

Structure (SMILES)	inhibition at 10 µM [%]
Cc1cnc(N2CCC(NC(=S)Nc3cccnc3)CC2)c(Cl)c1 [Example 8, 1-(1-(3-Chloro-5-methylpyridin-2-yl)piperidin-4-yl)-3-(pyridin-3-yl)thiourea]	≥ 75
FC(F)(F)c1cnc(N2CCC(NC(=S)Nc3ccccc3)CC2)c(Cl)c1 [Example 9, 1-(1-(3-Chloro-5-(trifluoromethyl)pyridin-2-yl)piperidin-4-yl)-3-phenylthiourea]	≥ 75
Fc1ccc(N2CCC(NC(=S)Nc3cccnc3)CC2)nc1 [Example 12, 1-(1-(5-Fluoropyridin-2-yl)piperidin-4-yl)-3-(pyridin-3-yl)thiourea]	≥ 75
FC(F)(F)Oc1ccc(N2CCC(NC(=S)Nc3cccnc3)CC2)nc1 [Example 13, 1-(Pyridin-3-yl)-3-(1-(5-(trifluoromethoxy)pyridin-2-yl)piperidin-4-yl)thiourea]	≥ 75
S=C(Nc1cccnc1)NC1CCN(c2ncccc2Cl)CC1 [Example 17, 1-(1-(3-Chloropyridin-2-yl)piperidin-4-yl)-3-(pyridin-3-yl)thiourea]	50 to 75
FC(F)(F)c1cc(Cl)cnc1N1CCC(NC(=S)Nc2cccnc2)CC1 [Example 18, 1-(1-(5-Chloro-3-(trifluoromethyl)pyridin-2-yl)piperidin-4-yl)-3-(pyridin-3-yl)thiourea]	≥ 75
S=C(Nc1cccnc1)NC1CCN(c2ccc(Cl)nc2)CC1 [Example 19, 1-(1-(6-Chloropyridin-3-yl)piperidin-4-yl)-3-(pyridin-3-yl)thiourea]	0 to 25
Fc1cc(C(F)(F)F)cnc1N1CCC(NC(=S)Nc2cccnc2)CC1 [Example 21, 1-(1-(3-Fluoro-5-(trifluoromethyl)pyridin-2-yl)piperidin-4-yl)-3-(pyridin-3-yl)thiourea]	≥ 75
FC(F)(F)c1ccccc1-c1ccnc(N2CCC(NC(=S)Nc3cccnc3)CC2)c1 [Example 24, 1-(pyridin-3-yl)-3-(1-(4-(2-(trifluoromethyl)phenyl)pyridin-2-yl)piperidin-4-yl)thiourea]	50 to 75
S=C(Nc1cccnc1)NC1CCN(c2cc(OC3CCCCC3)ccn2)CC1 [Example 30, 1-(1-(4-(Cyclohexyloxy)pyridin-2-yl)piperidin-4-yl)-3-(pyridin-3-yl)thiourea]	≥ 75
S=C(Nc1cccnc1)NC1CCN(c2cc(OCCC3CC3)ccn2)CC1 [Example 33, 1-(1-(4-(2-Cyclopropylethoxy)pyridin-2-yl)piperidin-4-yl)-3-(pyridin-3-yl)thiourea]	≥ 75
FC(F)(F)CCCOc1ccnc(N2CCC(NC(=S)Nc3cccnc3)CC2)c1 [Example 34, 1-(Pyridin-3-yl)-3-(1-(4-(4,4,4-trifluorobutoxy)pyridin-2-yl)piperidin-4-yl)thiourea]	≥ 75
FC1(F)CCC(Oc2ccnc(N3CCC(NC(=S)Nc4cccnc4)CC3)c2)CC1 [Example 35, 1-(1-(4-((4,4-Difluoro-cyclohexyl)oxy)pyridin-2-yl)piperidin-4-yl)-3-(pyridin-3-yl)thiourea]	≥ 75
CC(C)OC(=O)N1CCC(Oc2ccnc(N3CCC(NC(=S)Nc4cccnc4)CC3)c2)CC1 [Example 36, Isopropyl 4-((2-(4-(3-(pyridin-3-yl)thioureido)piperidin-1-yl)pyridin-4-yl)oxy)piperidine-1-carboxylate]	50 to 75

The next lines start with the values.

inhibition at 10 µM [%]	Structure (SMILES)
≥ 75	S=C(Nc1cccnc1)NC1CCN(c2ccc(Cl)cn2)CC1 [Example 11, 1-(1-(5-Chloropyridin-2-yl)piperidin-4-yl)-3-(pyridin-3-yl)thiourea]
≥ 75	FC(F)(F)Oc1ccc(-c2ccnc(N3CCC(NC(=S)Nc4cccnc4)CC3)c2)cc1 [Example 22, 1-(Pyridin-3-yl)-3-(1-(4-(4-(trifluoromethoxy)phenyl)pyridin-2-yl)piperidin-4-yl)thiourea]
≥ 75	FC(F)(F)Oc1cccc(-c2ccnc(N3CCC(NC(=S)Nc4cccnc4)CC3)c2)c1 [Example 23, 1-(Pyridin-3-yl)-3-(1-(4-(3-(trifluoromethoxy)phenyl)pyridin-2-yl)piperidin-4-yl)thiourea]
≥ 75	S=C(Nc1cccnc1)NC1CCN(c2cc(OCC3CC3)ccn2)CC1 [Example 31, 1-(1-(4- (Cyclopropylmethoxy)pyridin-2-yl)piperidin-4-yl)-3-(pyridin-3-yl)thiourea]
50 to 75	FC(F)COc1ccnc(N2CCC(NC(=S)Nc3cccnc3)CC2)c1 [Example 32, 1-(1-(4-(2,2-Difluoroethoxy)pyridin-2-yl)piperidin-4-yl)-3-(pyridin-3-yl)thiourea]
≥ 75	S=C(Nc1cccnc1)NC1CCN(c2cc(OCc3ccccc3)ccn2)CC1 [Example 37, 1-(1-(4-(Benzyloxy)pyridin-2-yl)piperidin-4-yl)-3-(pyridin-3-yl)thiourea]
≥ 75	Fc1ccc(COc2ccnc(N3CCC(NC(=S)Nc4cccnc4)CC3)c2)cc1 [Example 38, 1-(1-(4-((4-Fluorobenzyl)oxy)pyridin-2-yl)piperidin-4-yl)-3-(pyridin-3-yl)thiourea]
≥ 75	FC(F)(F)Oc1ccc(COc2ccnc(N3CCC(NC(=S)Nc4cccnc4)CC3)c2)cc1 [Example 39, 1-(Pyridin-3-yl)-3-(1-(4-((4-(trifluoromethoxy)benzyl)oxy)pyridin-2-yl)piperidin-4-yl)thiourea]
≥ 75	Fc1ccc(COc2ccnc(N3CCC(NC(=S)Nc4cccnc4)CC3)c2)cc1F [Example 42, 1-(1-(4-((3,4-Difluorobenzyl)oxy)pyridin-2-yl)piperidin-4-yl)-3-(pyridin-3-yl)thiourea]
≥ 75	Fc1cc(Cl)ccc1Oc1ccnc(N2CCC(NC(=S)Nc3cccnc3)CC2)c1 [Example 43, 1-(1-(4-(4-Chloro-2-fluorophenoxy)pyridin-2-yl)piperidin-4-yl)-3-(pyridin-3-yl)thiourea]
50 to 75	COc1ccnc(N2CCC(NC(=S)Nc3cccnc3)CC2)c1 [Example 44, 1-(1-(4-Methoxypyridin-2-yl)piperidin-4-yl)-3-(pyridin-3-yl)thiourea]
25 to 50	S=C(Nc1cccnc1)NC1CCN(c2cc(-c3ccccc3)ccn2)CC1 [Example 45, 1-(1-(4-Phenylpyridin-2-yl)piperidin-4-yl)-3-(pyridin-3-yl)thiourea]
0 to 25	COc1ccc(-c2ccnc(N3CCC(NC(=S)Nc4cccnc4)CC3)c2)cc1 [Example 46, 1-(1-(4-(4-Methoxyphenyl)pyridin-2-yl)piperidin-4-yl)-3-(pyridin-3-yl)thiourea]
≥ 75	Fc1ccc(-c2ccnc(N3CCC(NC(=S)Nc4cccnc4)CC3)c2)cc1 [Example 47, 1-(1-(4-(4-Fluorophenyl)pyridin-2-yl)piperidin-4-yl)-3-(pyridin-3-yl)thiourea]
≥ 75	Fc1ccc(-c2ccnc(N3CCC(NC(=S)Nc4cccnc4)CC3)c2)cc1F [Example 48, 1-(1-(4-(3,4-Difluorophenyl)pyridin-2-yl)piperidin-4-yl)-3-(pyridin-3-yl)thiourea]

Same assay, conditions: at 2 uM compound

Structure (SMILES)	% Inhibition (ABPP gel_JJH350 probe vs brain mem), at 2 uM
C#Cc1ccc(N2CCC(NC(=S)Nc3cccnc3)CC2)nc1 [Example 10, 1-(1-(5-Ethynylpyridin-2-yl)piperidin-4-yl)-3-(pyridin-3-yl)thiourea]	C (at 2 uM) (% inhibition is greater than or equal to 25% and less than 50%)
C#Cc1cnc(N2CCC(NC(=S)Nc3cccnc3)CC2)c(Cl)c1 [Example 20, 1-(1-(3-Chloro-5-ethynylpyridin-2-yl)piperidin-4-yl)-3-(pyridin-3-yl)thiourea]	B (at 2 uM) (% inhibition is greater than or equal to 50% and less than 75%)

Same assay, conditions: read-out: IC50 (ABPP gel_JJH350 probe vs brain mem)

Structure (SMILES)	IC50 [nM]
O=C(Nc1cccnc1)NC1CCN(c2nccc(Oc3ccc(OC(F)(F)F)cc3Cl)c2Cl)CC1 [Example 6, 1-(1-(3-Chloro-4-(2-chloro-4-(trifluoromethoxy)phenoxy)pyridin-2-yl)piperidin-4-yl)-3-(pyridin-3-yl)urea]	100 to 1000
S=C(Nc1cccnc1)NC1CCN(c2cc(OC3CCCCC3)ccn2)CC1 [Example 30, 1-(1-(4-(Cyclohexyloxy)pyridin-2-yl)piperidin-4-yl)-3-(pyridin-3-yl)thiourea]	1000 to 25000

Further lines, results first:

IC50 [nM]	Structure (SMILES)
1000 to 25000	S=C(Nc1cccnc1)NC1CCN(c2cc(OCC3CC3)ccn2)CC1 [Example 31, 1-(1-(4- (Cyclopropylmethoxy)pyridin-2-yl)piperidin-4-yl)-3-(pyridin-3-yl)thiourea]
1000 to 25000	S=C(Nc1cccnc1)NC1CCN(c2cc(OCc3ccccc3)ccn2)CC1 [Example 37, 1-(1-(4-(Benzyloxy)pyridin-2-yl)piperidin-4-yl)-3-(pyridin-3-yl)thiourea]
1000 to 25000	COc1ccnc(N2CCC(NC(=S)Nc3cccnc3)CC2)c1 [Example 44, 1-(1-(4-Methoxypyridin-2-yl)piperidin-4-yl)-3-(pyridin-3-yl)thiourea]
1000 to 25000	S=C(Nc1cccnc1)NC1CCN(c2cc(-c3ccccc3)ccn2)CC1 [Example 45, 1-(1-(4-Phenylpyridin-2-yl)piperidin-4-yl)-3-(pyridin-3-yl)thiourea]
